Reference: US20260165323A1, “USE OF STROBILURIN TYPE COMPOUNDS FOR COMBATING PHYTOPATHOGENIC FUNGI CONTAINING AN AMINO ACID SUBSTITUTION F129L IN THE MITOCHONDRIAL CYTOCHROME B PROTEIN CONFERRING RESISTANCE TO QO […]” (priority 2022, published 2026)

Columns and labels:
Type in all cases: in vivo
[1] = system: Phakopsora pachyrhizi containing the amino acid substitution F129L in the mitochondrial cytochrome b protein; assay: Use Example 1: protective control of soybean rust on soybeans (PHAKPA P2); settings: inoculated 2 days after spraying, % diseased leaf area
Summary of the method: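 Soybean seedling leaves sprayed to run-off with compound in acetone/DMSO–Wettol–water at the stated concentration, kept 2 days at 23-27° C, then inoculated with Qo-inhibitor-resistant F129L P. pachyrhizi. After 24 h at ~95% RH, 20-24° C, and up to 14 days in greenhouse, % diseased leaf area scored visually.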

[2] = system: Phakopsora pachyrhizi containing the amino acid substitution F129L in the mitochondrial cytochrome b protein; assay: Use Example 2: protective control of soybean rust on soybeans (PHAKPA P6); settings: inoculated six days after spraying, % diseased leaf area
Summary of the method: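 Compound in acetone and/or DMSO with Wettol (99:1), diluted with water, was sprayed to run-off on potted soybean seedlings. After six days at 23–27°C and 60–80% RH, plants were inoculated with a Qo-resistant F129L strain and held 24 h at about 95% RH. Percent diseased leaf area was scored visually after up to 14 days.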

Puccinia recondita [3] = assay: Use Example 3: curative control of brown rust on wheat (PUCCRT K4); settings: % diseased leaf area
Summary of the method: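 Wheat seedlings inoculated with Puccinia recondita spores, held 24 h at 95–99% RH, 20–24° C in dark, then 3 days in greenhouse before spraying to run-off (curative). Compound in acetone/DMSO–Wettol–water. After 5–7 further days at 20–24° C, 65–70% RH, % diseased leaf area scored visually.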

Puccinia recondita [4] = assay: Use Example 4: preventative control of brown rust on wheat (PUCCRT P7); settings: inoculated seven days after spraying, % diseased leaf area
Summary of the method: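 First two leaves of potted wheat seedlings sprayed to run-off with compound in acetone/DMSO–emulsifier–water, then inoculated with Puccinia recondita spores seven days later. Plants held 24 h dark at 95–99% RH and 20–24 °C, then 9–11 days in greenhouse; diseased leaf area (%) scored visually.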

Structure (SMILES)	% PHAKPA (F129L) Disease level P2 at 4 ppm [1] [%]	% PHAKPA (F129L) Disease level P2 at 16 ppm [1] [%]	% PHAKPA (F129L) Disease level P6 at 4 ppm [2] [%]	% PHAKPA (F129L) Disease level P6 at 16 ppm [2] [%]	% PUCCRT Disease level K4 at 4 ppm (Puccinia recondita [3]) [%]	% PUCCRT Disease level K4 at 16 ppm (Puccinia recondita [3]) [%]	% PUCCRT Disease level P7 at 4 ppm (Puccinia recondita [4]) [%]	% PUCCRT Disease level P7 at 16 ppm (Puccinia recondita [4]) [%]
CCOC/C(=N\OCc1c(Cl)cccc1/C(=N\OC)C(=O)NC)c1c(F)cc(F)cc1F [compound 32]	12	0	33	1	77	57	53	30
CNC(=O)/C(=N/OC)c1cccc(Cl)c1CO/N=C(\COC)c1cccc(Cl)c1 [compound 43]	6	0	20	2	72	10	10	3
CCOC/C(=N\OCc1c(Cl)cccc1/C(=N\OC)C(=O)OC)c1ccccc1F [compound 20]	60	43	63	63	80	77	70	57
CO/C=C(/C(=O)OC)c1cccc(Cl)c1CO/N=C(\COC)c1ccc(F)c(F)c1 [compound 92]	0	0	12	0	6	0	3	3
CO/C=C(/C(=O)OC)c1cccc(Cl)c1CO/N=C(\COC)c1cc(F)cc(F)c1 [compound 80]	5	0	0	0	30	0	5	3
CNC(=O)/C(=N/OC)c1cccc(Cl)c1CO/N=C(\COC)c1ccccc1F [compound 21]	7	0	16	1	63	28	33	6
CNC(=O)/C(=N/OC)c1cccc(Cl)c1CO/N=C(\COC)c1ccc(Cl)cc1F [compound 100]	24	2	20	3	78	6	12	4
CO/C=C(/C(=O)OC)c1cccc(Cl)c1CO/N=C(\COC)c1ccccc1F [compound 13, Methyl-(E)-2-[3-chloro-2-[[(Z)-[1-(2-fluorophenyl)-2-methoxy-ethylidene]amino]oxymethyl]phenyl]-3-methoxy-prop-2-enoate]	5	0	4	0	67	4	67	18
CCOC/C(=N\OCc1c(Cl)cccc1/C(=C\OC)C(=O)OC)c1c(F)cc(F)cc1F [compound 30]	7	0	25	5	77	35	80	37
